Test results from the NIST ThermoML archive (doi:10.1021/je0500330).

Legend:
[1] = xn = mol fraction of the nth substance listed; conditions: 298.15 K, 101.3 kPa, Liquid
[2] = refractive index (Na D-line) (dimensionless); xn = mol fraction of the nth substance listed; conditions: 298.15 K, 101.3 kPa, Liquid
[3] = Liquid; for speed of sound / mass density: 298.15 K, 101.33 kPa; for speed of sound: Sing-around technique in a fixed-path interferometer; for mass density: Vibrating tube method
[4] = refractive index (Na D-line) (dimensionless); conditions: 298.15 K; 101.33 kPa; Liquid; Standard Abbe refractometry

CCC(C)CO (centres undefined) [2-methyl-1-butanol] + CCO
Conditions	mass density, [1] [kg/m3]	refractive index, [2]	speed of sound, [1] [m/s]
x2 = 0.0486	814.11	1.40734	1247.7
x2 = 0.1013	813.23	1.40583	1245
x2 = 0.1523	812.31	1.40424	1241.4
x2 = 0.1987	811.39	1.40277	1237.6
x2 = 0.2503	810.38	1.40112	1233.6
x2 = 0.3004	809.33	1.39926	1229.6
x2 = 0.3486	808.22	1.39756	1225.3
x2 = 0.4003	807.02	1.39549	1221
x2 = 0.4502	805.74	1.39341	1215.9
x2 = 0.5004	804.41	1.3912	1210.5
x2 = 0.5502	803.01	1.38899	1205.4
x2 = 0.6004	801.43	1.38636	1199.4
x2 = 0.6503	799.81	1.38373	1193.1
x2 = 0.7	798.1	1.38109	1186.9
x2 = 0.8009	794.32	1.37475	1173
x2 = 0.8503	792.34	1.37134	1166
x2 = 0.9002	790.13	1.36758	1158.2
x2 = 0.9503	787.77	1.36358	1150.2

CO [methanol]
Conditions	mass density [kg/m3]	refractive index	speed of sound [m/s]
[3]	787.14	–	1102
[4]	–	1.32667	–

Conditions	vapor or sublimation pressure [kPa]
[3], 337.65 K	101.3

CCC(C)CO (centres undefined) [2-methyl-1-butanol]
Conditions	mass density [kg/m3]	refractive index	speed of sound [m/s]
[3]	814.87	–	1253
[4]	–	1.40872	–

[3]
Conditions	vapor or sublimation pressure [kPa]
401.58 K	101.3
401.86 K	101.3

CCO [ethanol]
Conditions	mass density [kg/m3]	refractive index	speed of sound [m/s]
[3]	785.36	–	1143
[4]	–	1.35916	–

Conditions	vapor or sublimation pressure [kPa]
[3], 351.5 K	101.3

CCC(C)CO (centres undefined) [2-methyl-1-butanol] + CO
Conditions	mass density, [1] [kg/m3]	refractive index, [2]	speed of sound, [1] [m/s]
x2 = 0.0485	814.3	1.40702	1250.7
x2 = 0.1016	813.63	1.40511	1246.7
x2 = 0.1543	812.9	1.40324	1242.6
x2 = 0.1987	812.22	1.40162	1238.7
x2 = 0.2528	811.35	1.39907	1233.9
x2 = 0.3017	810.5	1.39712	1229
x2 = 0.3496	809.49	1.39461	1223
x2 = 0.4005	808.36	1.39181	1217
x2 = 0.4506	807.25	1.38875	1210.7
x2 = 0.4987	806.12	1.38569	1204.2
x2 = 0.5502	804.84	1.38222	1197.2
x2 = 0.6003	803.4	1.37832	1188.8
x2 = 0.6487	801.91	1.37416	1180.7
x2 = 0.7003	800.27	1.36946	1171.5
x2 = 0.7504	798.44	1.3642	1162.7
x2 = 0.8002	796.5	1.35846	1151.4
x2 = 0.8503	794.35	1.35214	1142.2
x2 = 0.9004	791.96	1.34482	1131.5
x2 = 0.9503	789.39	1.33618	1120.5
